Earlier results on 1 substance are cited in patent US4235881A, “Method for producing high potency factor VIII” (priority 1978, dated 1980).

The data set deals with Factor VIII. Particulars: hemophiliacs having diminished ability to synthesize Factor VIII.

Consider “1-Deamino-8-D-Arginine Vasopressin [dDAVP]”, for which the “ability to synthesize Factor VIII” value is recorded as “increased to normal levels”.
